In patent US20120071533A1, “ANTI-FUNGAL FORMULATION” (priority 2009, published 2012):
Values joined by “and” are separate entries in the source; they are usually repeats but may differ in a detail not shown here. Equal values may be shown once. Marks after values point to notes of the source that are not given here.

Assays:
onychomycosis = onychomycosis of the toenail; package insert; cited from earlier work
genus Candida = assay: In vitro antifungal activity (MIC) against the genus Candida; assay type: cell-based
Experimental: (§1) The antifungal activities of luliconazole, the Z form of luliconazole, and the SE form of luliconazole were determined. The compounds were tested against the genus Trichophyton and the genus Candida. The MICs against Trichophyton were 15-250 times higher for the Z form and 120-1000 times higher for the S-E form than for luliconazole. The MICs against the genus Candida were 4-500 times higher for the Z form and 8-1000 times higher for the S-E form than for luliconazole.

[1] = tested on: Trichophyton rubrum, Trichophyton mentagrophytes and Trichophyton tonsurans; conditions: versus terbinafine, liranaftate, butenafine, amorolfine, ketoconazole, clotrimazole, neticonazole, miconazole, bifonazole; cited from earlier work
genus Trichophyton = assay: In vitro antifungal activity (MIC) against the genus Trichophyton; assay type: cell-based
Experimental: as §1

[2] = Solubility of luliconazole in solvents and model formulations by UV spectrophotometer at 296 nm, 4° C. and RT (21.5° C., ±1.5); assay type: physicochemical
Experimental: (§2) Typically, luliconazole was weighed into a screw-cap glass vial, the desired solvent was added and the vial was tightly closed. The vials containing suspension were sonicated in an ultra-sonicator bath at 40° C. for 20-30 seconds; the vials were taken out of the bath and swirled to mix the contents. The sonication and swirling steps were repeated 3-4 times till most of the luliconazole was dissolved. […] The samples were stored at RT (21.5° C.,±1.5) and at 4° C. in tightly closed screw-cap glass vials. Sample preparation was conducted in a dark room under yellow light and samples were protected from light during storage.
Solubility was determined after 24 hours and again after 3 days at respective storage conditions (RT and 4° C.) using a UV spectrophotometer (Pharma Spec 1700; Shimadzu). Samples for quantitative determination of solubility were drawn from the supernatant area of the suspension (solution) into a 3 ml syringe with a 0.1 μm (pore size) syringe filter (nylon, 13 mm) attached. The desired amount of solution was delivered into a 100 ml volumetric flask that was immediately closed tightly with a stopper and weighed accurately to determine the exact weight of the solution. As ethyl acetate is incompatible with the plastic in the syringe and the housing of the syringe-filter, the ethyl acetate solution was centrifuged at 4200 rpm for 5 minutes and the supernatant solution was drawn for analysis using a glass Pasteur pipette.
The samples taken in volumetric flasks were diluted with methanol to the mark and diluted further before analyzing on the UV spectrophotometer. A five point standard curve of luliconazole (at 20, 10, 6, 4 and 2 μg/ml) in methanol was determined by reading the absorbance at 296 nm. The samples were also read at 296 nm and the concentration of luliconazole was determined from the equation of the standard curve. The solubility of luliconazole in respective solvents and model formulations was then determined as % wt/wt.
Solubility was calculated as % wt/wt from the UV spectrophotometric data read at 296 nm.

[3] = cited from earlier work
[4] = Visual observations of luliconazole solubility samples (crystals / clear solution); assay type: physicochemical; conditions: for concentration at which luliconazole was completely soluble (visual observations): pilot studies
Experimental: as §2

[5] = in Acetone (theoretical 18%; #853-38-14)
[6] = in Benzyl alcohol (theoretical 40%; #853-38-13)
[7] = in Ethanol (theoretical 3.5%; #853-38-15)
[8] = in Ethyl acetate (theoretical 6.5%; #853-38-12)
[9] = in Transcutol P (theoretical 15%; #853-38-17)

SMILES: CN(C/C=C/C#CC(C)(C)C)Cc1cccc2ccccc12 [terbinafine]
- patients with both mycological cure and clinical cure (onychomycosis): 38%

SMILES: N#C/C(=C1/SC[C@@H](c2ccc(Cl)cc2Cl)S1)n1ccnc1 [luliconazole, (−)-(E)-[(4R)-(2,4-dichlorophenyl)-1,3-dithiolan-2-ylidene](1H-imidazol-1-yl)acetonitrile]
- MIC Range (genus Candida; C. albicans (6 strains)): 30 to 250 ng/mL
- MIC Range (genus Candida; C. glabrata (5 strains)): ≦0.0080-0.030 μg/mL
- potency compared with reference drugs [1]: greater potency
- MIC Range (genus Trichophyton; T. mentagrophytes (4 strains)): 1 to 2 ng/mL
- MIC Range (genus Trichophyton; T. rubrum (4 strains)): 0.24 to 0.5 ng/mL
- Solubility wt/wt % 4° C. 24 hr [2, 5]: 13.1 % wt/wt
- Solubility wt/wt % 4° C. 3 days [2, 5]: 12 % wt/wt and 12.49 % wt/wt
- Solubility wt/wt % RT 24 hr ([2]; in Acetone (theoretical 18%; #853-38-14), average duplicate sample preparations): 17.67* % wt/wt
- Solubility wt/wt % RT 3 days ([2]; in Benzyl alcohol (50%; saturated solution; #802-24-01)): 43 % wt/wt and 43.44 % wt/wt
- Solubility wt/wt % 4° C. 24 hr [2, 6]: 39.87 % wt/wt
- Solubility wt/wt % 4° C. 3 days [2, 6]: 40 % wt/wt and 39.18 % wt/wt
- Solubility wt/wt % RT 24 hr [2, 6]: 40.19 % wt/wt
- Solubility wt/wt % RT 3 days ([2]; in Benzyl alcohol (theoretical 40%; #853-38-13), average duplicate sample preparations): 40 % wt/wt and 39.91* % wt/wt
- Solubility wt/wt % 4° C. 24 hr [2, 7]: 2.67 % wt/wt
- Solubility wt/wt % 4° C. 3 days [2, 7]: 2.3 % wt/wt
- Solubility wt/wt % RT 24 hr [2, 7]: 3.51 % wt/wt
- Solubility wt/wt % 4° C. 24 hr [2, 8]: 6.14 % wt/wt
- Solubility wt/wt % RT 24 hr ([2]; in Ethyl acetate (theoretical 6.5%; #853-38-12), average duplicate sample preparations): 6.58* % wt/wt
- Solubility wt/wt % RT 24 hr ([2]; in Isopropyl myristate (theoretical 5%; #853-38-10)): 0.4 % wt/wt and 0.41 % wt/wt
- Solubility wt/wt % RT 24 hr ([2]; in Propylene carbonate (theoretical 10%; #853-38-11)): 8.98 % wt/wt
- Solubility wt/wt % 4° C. 3 days [2, 9]: 14.78 % wt/wt
- Solubility wt/wt % RT 24 hr [2, 9]: 15.12 % wt/wt
- Solubility wt/wt % RT 3 days [2, 9]: 14.89 % wt/wt
- solubility in water [3]: practically insoluble in water
- visual observations at 3 days/4° C. [4, 6]: clear solution
- visual observations at 3 days/RT [4, 6]: clear solution
- visual observations at 3 days/RT [4, 7]: clear solution
- visual observations at 3 days/4° C. [4, 8]: clear solution
- visual observations at 3 days/RT [4, 8]: clear solution
- visual observations at 3 days/4° C. [4, 9]: clear solution
- visual observations at 3 days/RT [4, 9]: clear solution
- concentration at which luliconazole was completely soluble (visual observations) ([4]; in Transcutol P): ~15%
- concentration at which luliconazole was completely soluble (visual observations) ([4]; in benzyl alcohol): ~40%
